Data from US11071300B2, “Pesticidally active pyrazole derivatives” (SYNGENTA PARTICIPATIONS AG, priority 2017, dated 2021).
Where two headings read alike, the source gives them in different places.

How the values were obtained:
Format in all cases: in vivo
Myzus persicae = Myzus persicae (green peach aphid) leaf disc test; settings: foliar, 144 h, application rate 200 ppm, sunflower leaf discs sprayed, mixed ages, 6 DAT, read-out: control (mortality)
Description: Myzus persicae (Green Peach Aphid):
Sunflower leaf discs were placed on agar in a 24-well microtiter plate and sprayed with test solutions at an application rate of 200 ppm. After drying, the leaf discs were infested with an aphid population of mixed ages. After an incubation period of 6 DAT, samples were checked for mortality.

Thrips tabaci = Thrips tabaci (onion thrips) leaf disc test; settings: foliar, 144 h, read-out: control (mortality)
Description: Thrips tabaci (Onion Thrips):
Sunflower leaf discs were placed on agar in 24-well microtiter plates and sprayed with aqueous test solutions prepared from 10′000 ppm DMSO stock solutions. After drying the leaf discs were infested with a thrips population of mixed ages. The samples were assessed for mortality 6 days after infestation.

Spodoptera littoralis = Spodoptera littoralis (Egyptian cotton leaf worm) leaf disc test; settings: foliar, 72 h, application rate 200 ppm, cotton leaf discs sprayed, L1 larvae, 3 days after infestation, read-out: control (at least one of mortality, anti-feedant effect, growth inhibition)
Description: Spodoptera littoralis (Egyptian Cotton Leaf Worm)
Cotton leaf discs were placed on agar in 24-well microtiter plates and sprayed with aqueous test solutions prepared from 10′000 ppm DMSO stock solutions. After drying the leaf discs were infested with five L1 larvae. The samples were assessed for mortality, anti-feedant effect, and growth inhibition in comparison to untreated samples 3 days after infestation. Control of Spodoptera littoralis by a test sample is when at least one of mortality, anti-feedant effect, and growth inhibition is higher than the untreated sample.

Euschistus heros = Euschistus heros (neotropical brown stink bug) soybean leaf test; settings: 120 h, read-out: control (mortality and growth inhibition)
Description: Euschistus heros (Neotropical Brown Stink Bug):
Soybean leaves on agar in 24-well microtiter plates were sprayed with aqueous test solutions prepared from 10′000 ppm DMSO stock solutions. After drying the leaves were infested with N2 nymphs. The samples were assessed for mortality and growth inhibition in comparison to untreated samples 5 days after infestation.

Plutella xylostella = Plutella xylostella (diamond back moth) artificial diet test; settings: 120 h, read-out: control (mortality and growth inhibition)
Description: Plutella xylostella (Diamond Back Moth):
24-well microtiter plates with artificial diet were treated with aqueous test solutions prepared from 10′000 ppm DMSO stock solutions by pipetting. After drying, the plates were infested with L2 larvae (10 to 15 per well). The samples were assessed for mortality and growth inhibition in comparison to untreated samples 5 days after infestation.

Diabrotica Balteata = experiment: Diabrotica balteata (corn root worm) maize sprout test; settings: 96 h, read-out: control (mortality and growth inhibition)
Description: Diabrotica Balteata, (Corn Root Worm)
Maize sprouts, placed on an agar layer in 24-well microtiter plates were treated with aqueous test solutions prepared from 10′000 ppm DMSO stock solutions by spraying. After drying, the plates were infested with L2 larvae (6 to 10 per well). The samples were assessed for mortality and growth inhibition in comparison to untreated samples 4 days after infestation.

Tetranychus urticae = Tetranychus urticae (two-spotted spider mite) leaf disc test; settings: foliar, 192 h, application rate 200 ppm, bean leaf discs sprayed, 8 days after infestation, read-out: control (mortality on mixed population, mobile stages)
Description: Tetranychus urticae (Two-Spotted Spider Mite):
Bean leaf discs on agar in 24-well microtiter plates were sprayed with aqueous test solutions prepared from 10′000 ppm DMSO stock solutions. After drying the leaf discs were infested with a mite population of mixed ages. The samples were assessed for mortality on mixed population (mobile stages) 8 days after infestation.

[1] = application rate 200 ppm, sunflower leaf discs sprayed, mixed ages, 6 days after infestation
[2] = application rate 200 ppm, soybean leaves sprayed, N2 nymphs, 5 days after infestation
[3] = application rate 200 ppm, artificial diet, L2 larvae, 5 days after infestation
[4] = application rate 200 ppm, maize sprouts sprayed, L2 larvae, 4 days after infestation

CCOCN(C(=O)c1cc(-c2cnn(-c3c(C(F)(F)F)c(OS(=O)(=O)C(F)(C(F)(F)F)C(F)(F)F)nn3C)c2)ccc1Cl)C1(C#N)CC1 [Compound 47, [5-[4-[4-chloro-3-[(1-cyanocyclopropyl)-(ethoxymethyl)carbamoyl]phenyl]pyrazol-1-yl]-1-methyl-4-(trifluoromethyl)pyrazol-3-yl] 1,1,1,2,3,3,3-heptafluoropropane-2-sulfonate]
≥ 80%: mortality at 200 ppm (Myzus persicae) | mortality at 200 ppm (Thrips tabaci; [1]) | percent control (mortality, anti-feedant effect or growth inhibition) at 200 ppm (Spodoptera littoralis) | mortality at 200 ppm (Euschistus heros; [2]) | mortality at 200 ppm (Plutella xylostella; [3]) | mortality at 200 ppm (Diabrotica Balteata; [4])

CCN(C(=O)c1cc(-c2cnn(-c3c(C(F)(F)F)c(OS(=O)(=O)C(F)(F)C(F)(F)C(F)(F)C(F)(F)F)nn3C)c2)cnc1Cl)C1(C#N)CC1 [Compound 32, [5-[4-[6-chloro-5-[(1-cyanocyclopropyl)-ethyl-carbamoyl]-3-pyridyl]pyrazol-1-yl]-1-methyl-4-(trifluoromethyl)pyrazol-3-yl] 1,1,2,2,3,3,4,4,4-nonafluorobutane-1-sulfonate]
≥ 80%: mortality at 200 ppm (Thrips tabaci) | percent control (mortality, anti-feedant effect or growth inhibition) at 200 ppm (Spodoptera littoralis) | mortality at 200 ppm (Euschistus heros) | mortality at 200 ppm (Plutella xylostella) | mortality at 200 ppm (Diabrotica Balteata)

CCN(C(=O)c1cc(-c2cc(-c3c(C(F)(F)F)c(OS(=O)(=O)C(F)(C(F)(F)F)C(F)(F)F)nn3C)no2)ccc1Cl)C1(C#N)CC1 [Compound 38, [5-[5-[4-chloro-3-[(1-cyanocyclopropyl)-ethyl-carbamoyl]phenyl]isoxazol-3-yl]-1-methyl-4-(trifluoromethyl)pyrazol-3-yl] 1,1,1,2,3,3,3-heptafluoropropane-2-sulfonate]
≥ 80%: mortality at 200 ppm (Myzus persicae) | percent control (mortality, anti-feedant effect or growth inhibition) at 200 ppm (Spodoptera littoralis) | mortality at 200 ppm (Euschistus heros; [2]) | mortality at 200 ppm (Plutella xylostella; [3]) | mortality at 200 ppm (Tetranychus urticae)

Cn1nc(OS(=O)(=O)C(F)(C(F)(F)F)C(F)(F)F)c(C(F)(F)F)c1-n1cc(-c2ccc(Cl)c(C(=O)NC3(CC#N)CC3)c2)cn1 [Compound 68, [5-[4-[4-chloro-3-[[1-(cyanomethyl)cyclopropyl]carbamoyl]phenyl]pyrazol-1-yl]-1-methyl-4-(trifluoromethyl)pyrazol-3-yl] 1,1,1,2,3,3,3-heptafluoropropane-2-sulfonate]
≥ 80%: percent control (mortality, anti-feedant effect or growth inhibition) at 200 ppm (Spodoptera littoralis) | mortality at 200 ppm (Euschistus heros; [2]) | mortality at 200 ppm (Plutella xylostella; [3]) | mortality at 200 ppm (Tetranychus urticae)

CN(C(=O)c1cc(-c2cnn(-c3c(C(F)(F)F)c(OS(=O)(=O)C(F)(F)C(F)(F)Cl)nn3C)c2)ccc1Cl)C1(C#N)CC1 [Compound 19, [5-[4-[4-chloro-3-[(1-cyanocyclopropyl)-methyl-carbamoyl]phenyl]pyrazol-1-yl]-1-methyl-4-(trifluoromethyl)pyrazol-3-yl] 2-chloro-1,1,2,2-tetrafluoro-ethanesulfonate]
≥ 80%: mortality at 200 ppm (Myzus persicae) | mortality at 200 ppm (Thrips tabaci; [1]) | percent control (mortality, anti-feedant effect or growth inhibition) at 200 ppm (Spodoptera littoralis) | mortality at 200 ppm (Plutella xylostella; [3]) | mortality at 200 ppm (Tetranychus urticae) | mortality at 200 ppm (Diabrotica Balteata; [4])

Cn1nc(OS(=O)(=O)C(F)(C(F)(F)F)C(F)(F)F)c(C(F)(F)F)c1-n1cc(-c2ccc(Cl)c(C(=O)NC3(C(F)(F)F)CC3)c2)cn1 [Compound 65, [5-[4-[4-chloro-3-[[1-(trifluoromethyl)cyclopropyl]carbamoyl]phenyl]pyrazol-1-yl]-1-methyl-4-(trifluoromethyl)pyrazol-3-yl] 1,1,1,2,3,3,3-heptafluoropropane-2-sulfonate]
≥ 80%: percent control (mortality, anti-feedant effect or growth inhibition) at 200 ppm (Spodoptera littoralis) | mortality at 200 ppm (Euschistus heros; [2]) | mortality at 200 ppm (Plutella xylostella; [3]) | mortality at 200 ppm (Tetranychus urticae)

CN(C(=O)c1cc(-c2cnn(-c3c(C(F)(F)F)c(OS(=O)(=O)C(F)(C(F)(F)F)C(F)(F)F)nn3C)c2)ccc1Cl)C1CC1 [Compound 17, [5-[4-[4-chloro-3-[cyclopropyl(methyl)carbamoyl]phenyl]pyrazol-1-yl]-1-methyl-4-(trifluoromethyl)pyrazol-3-yl] 1,1,1,2,3,3,3-heptafluoropropane-2-sulfonate]
≥ 80%: mortality at 200 ppm (Myzus persicae) | mortality at 200 ppm (Thrips tabaci; [1]) | percent control (mortality, anti-feedant effect or growth inhibition) at 200 ppm (Spodoptera littoralis) | mortality at 200 ppm (Plutella xylostella; [3]) | mortality at 200 ppm (Tetranychus urticae) | mortality at 200 ppm (Diabrotica Balteata; [4])

CN(C(=O)c1cc(-c2cnn(-c3c(C(F)(F)F)c(OS(=O)(=O)C(F)(F)C(F)(F)C(F)(F)C(F)(F)F)nn3C)c2)ccc1Cl)C1(C#N)CC1 [Compound 6, [5-[4-[4-chloro-3-[(1-cyanocyclopropyl)-methyl-carbamoyl]phenyl]pyrazol-1-yl]-1-methyl-4-(trifluoromethyl)pyrazol-3-yl] 1,1,2,2,3,3,4,4,4-nonafluorobutane-1-sulfonate]
≥ 80%: mortality at 200 ppm (Thrips tabaci) | percent control (mortality, anti-feedant effect or growth inhibition) at 200 ppm (Spodoptera littoralis) | mortality at 200 ppm (Euschistus heros) | mortality at 200 ppm (Plutella xylostella) | mortality at 200 ppm (Diabrotica Balteata)

Cn1nc(OS(=O)(=O)C(F)(F)C(F)(F)F)c(C(F)(F)F)c1-n1cc(-c2ccc(Cl)c(C(=O)NC3(C#N)CC3)c2)cn1 [Compound 1, [5-[4-[4-chloro-3-[(1-cyanocyclopropyl)carbamoyl]phenyl]pyrazol-1-yl]-1-methyl-4-(trifluoromethyl)pyrazol-3-yl] 1,1,2,2,2-pentafluoroethanesulfonate]
≥ 80%: percent control (mortality, anti-feedant effect or growth inhibition) at 200 ppm (Spodoptera littoralis) | mortality at 200 ppm (Euschistus heros; [2]) | mortality at 200 ppm (Plutella xylostella; [3]) | mortality at 200 ppm (Tetranychus urticae) | mortality at 200 ppm (Diabrotica Balteata; [4])

CCN(C(=O)c1cc(-c2cnn(-c3c(C(F)(F)F)c(OS(=O)(=O)C(F)(C(F)(F)F)C(F)(F)F)nn3C)c2)cnc1Cl)C1(C#N)CC1 [Compound 26, [5-[4-[6-chloro-5-[(1-cyanocyclopropyl)-ethyl-carbamoyl]-3-pyridyl]pyrazol-1-yl]-1-methyl-4-(trifluoromethyl)pyrazol-3-yl] 1,1,1,2,3,3,3-heptafluoropropane-2-sulfonate]
≥ 80%: mortality at 200 ppm (Myzus persicae) | mortality at 200 ppm (Thrips tabaci; [1]) | percent control (mortality, anti-feedant effect or growth inhibition) at 200 ppm (Spodoptera littoralis) | mortality at 200 ppm (Plutella xylostella; [3]) | mortality at 200 ppm (Tetranychus urticae) | mortality at 200 ppm (Diabrotica Balteata; [4])

CN(C(=O)c1cc(-c2cnn(-c3c(C(F)(F)F)c(OS(=O)(=O)C(F)(C(F)(F)F)C(F)(F)F)nn3C)c2)cnc1Cl)C1CC1 [Compound 22, [5-[4-[6-chloro-5-[cyclopropyl(methyl)carbamoyl]-3-pyridyl]pyrazol-1-yl]-1-methyl-4-(trifluoromethyl)pyrazol-3-yl] 1,1,1,2,3,3,3-heptafluoropropane-2-sulfonate]
≥ 80%: mortality at 200 ppm (Myzus persicae) | mortality at 200 ppm (Thrips tabaci; [1]) | percent control (mortality, anti-feedant effect or growth inhibition) at 200 ppm (Spodoptera littoralis) | mortality at 200 ppm (Plutella xylostella; [3]) | mortality at 200 ppm (Tetranychus urticae) | mortality at 200 ppm (Diabrotica Balteata; [4])
